Results on 3 molecules are retold here after US11851391B2, “Antifungal compounds and methods of forming the same” (University of Kentucky Research Foundation, priority 2018, dated 2023).

The subject of assay [1] is Candida krusei ATCC 6258 (strain I). In words: MIC determination, in vitro antifungal assay (CLSI M27-A3). Format: cell-based. Conditions: MIC-0, 48 h at 35° C. The procedure: (§1) The activity of N,N′-diaryl-bishydrazones 7-22 was tested against a panel of seven strains of C. albicans: ATCC 10231(R) (A), ATCC 64124(R) (B), ATCC MYA-2876(S) (C), ATCC 90819(R) (D), ATCC MYA-2310(S) (E), ATCC MYA-1237(R) (F), and ATCC MYA-1003(R) (G). The activity of these bishydrazones 7-22 was also explored against a panel of three non-albicans Candida strains: C. glabrata ATCC 2001 (H), C. krusei ATCC 6258 (I), and C. parapsilosis ATCC 22019 (J). Finally, the activity of these bishydrazones 7-22 was explored against three Aspergillus strains: A. flavus ATCC MYA-3631 (K), A. nidulans ATCC 38163 (L), and A. terreus ATCC MYA-3633 (M).
(§2) Candida albicans ATCC 10231 (A), C. albicans ATCC 64124 (B), and C. albicans ATCC MYA-2876 (C) were kindly provided by Dr. Jon Y. Takemoto (Utah State University, Logan, UT, USA). C. albicans ATCC 90819 (D), C. albicans ATCC MYA-2310 (E), C. albicans ATCC MYA-1237 (F), C. albicans ATCC MYA-1003 (G), Candida glabrata ATCC 2001 (H), Candida krusei ATCC 6258 (I), Candida parapsilosis ATCC 22019 (J), Aspergillus flavus ATCC MYA-3631 (K), and Aspergillus terreus ATCC MYA-3633 (M) were obtained from the American Type Culture Collection (ATCC; Manassas, VA, USA). Aspergillus nidulans ATCC 38163 (L) was received from Dr. Jon S. Thorson (University of Kentucky, Lexington, KY, USA). Filamentous fungi and yeasts were cultivated at 35° C. in RPMI 1640 medium (with 1-glutamine, without sodium biocarbonate, Sigma-Aldrich, St. Louis, MO) buffered to a pH of 7.0 with 0.165 M morpholinepropanesulfonic acid (MOPS) buffer (Sigma-Aldrich).
(§3) A single colony of freshly prepared yeast cells was used to inoculate 5 mL of yeast extract peptone dextrose (YPD) broth prior to incubation overnight with shaking at 200 rpm at 35° C. From the actively growing yeast culture, 100 μL were then transferred to 900 μL of sterile ddH2O and re-adjusted to achieve OD600 of 0.12 (˜1×10^6 CFU/mL). The cell suspension was further diluted to achieve 2-4×10^3 CFU/mL in RPMI 1640 medium. […] The final concentration of DMSO was ensured to be <1.25% in all experiments.

Assay [2] deals with Candida glabrata ATCC 2001 (strain H). Described as above. The class given is cell-based. Conditions: MIC-0, 48 h at 35° C. The procedure:
as §1, §2, §3

Assay [3] has as its system Candida parapsilosis ATCC 22019 (strain J). Described as above. Format: cell-based. Conditions: Lodderomyces parapsilosis, ATCC22019, 48 h, strain J; MIC-0; 48 h at 35° C.; read-out: MIC. As to the method:
as §1, §2
as §3, with “The MIC values of compounds 7a-24c against yeast cells (strains A-J) were determined in 96-well plates as described in the CLSI document M27-A3 with minor modifications. A” for “A”, “experiments. The MIC values for compounds 7a-24c and CAS were defined as the minimum drug concentration that yielded complete inhibition (also known as MIC-0).” for “experiments.”

In assay [4] the test system is Candida albicans ATCC 10231(R) (strain A). Described as above. The class given is cell-based. Conditions: MIC-0 (no visible growth), 48 h at 35° C. As to the method:
as §1, §2
as §3, with “The MIC values of compounds 7a-24c against yeast cells (strains A-J) were determined in 96-well plates as described in the CLSI document M27-A3 with minor modifications. A” for “A”, “experiments. The MIC values for compounds 7a-24c and CAS were defined as the minimum drug concentration that yielded complete inhibition (also known as MIC-0).” for “experiments.”

Assay [5] concerns C. albicans ATCC 90819(R) (strain D). The description is as above. Conditions: Candida albicans, ATCC90819, 48 h, MIC-0, 48 h at 35° C., read-out: MIC. The class given is cell-based, Candida albicans. The procedure:
as §1, §2
as §3, with “The MIC values of compounds 7a-24c against yeast cells (strains A-J) were determined in 96-well plates as described in the CLSI document M27-A3 with minor modifications. A” for “A”, “experiments. The MIC values for compounds 7a-24c and CAS were defined as the minimum drug concentration that yielded complete inhibition (also known as MIC-0).” for “experiments.”

For assay [6], the system named is C. albicans ATCC MYA-2310(S) (strain E). The assay is described as above. Format: cell-based, Candida albicans. Conditions: MIC-0, 48 h at 35° C. As to the method:
as §1, §2
as §3, with “The MIC values of compounds 7a-24c against yeast cells (strains A-J) were determined in 96-well plates as described in the CLSI document M27-A3 with minor modifications. A” for “A”, “experiments. The MIC values for compounds 7a-24c and CAS were defined as the minimum drug concentration that yielded complete inhibition (also known as MIC-0).” for “experiments.”

Assay [7] deals with C. albicans ATCC 64124(R) (strain B). The assay is described as above. Conditions: strain B, MIC-0, 48 h at 35° C. The class given is cell-based, Candida albicans. As to the method:
as §1, §2
as §3, with “The MIC values of compounds 7a-24c against yeast cells (strains A-J) were determined in 96-well plates as described in the CLSI document M27-A3 with minor modifications. A” for “A”, “experiments. The MIC values for compounds 7a-24c and CAS were defined as the minimum drug concentration that yielded complete inhibition (also known as MIC-0).” for “experiments.”

Assay [8] has as its system C. albicans ATCC MYA-1237(R) (strain F). Described as above. Format: cell-based, Candida albicans. Conditions: MIC-0, 48 h at 35° C. The procedure: as §1, §2
as §3, with “The MIC values of compounds 7a-24c against yeast cells (strains A-J) were determined in 96-well plates as described in the CLSI document M27-A3 with minor modifications. A” for “A”, “experiments. The MIC values for compounds 7a-24c and CAS were defined as the minimum drug concentration that yielded complete inhibition (also known as MIC-0).” for “experiments.”

Assay [9] has as its system Aspergillus terreus ATCC MYA-3633 (strain M). In words: MIC determination against filamentous fungi (CLSI M38-A2). The class given is cell-based. Conditions: Aspergillus terreus, 48 h, MIC-0, 48 h at 35° C., read-out: MIC. As to the method: as §1, §2
(§4) Similarly, the MIC values of compounds 7a-24c, as well as that of the two control drugs against filamentous fungi (strains K-M) were determined as previously described in CLSI document M38-A2. Spores were harvested from sporulating cultures growing on potato dextrose agar (PDA) by filtration through sterile glass wool and enumerated by using a hemocytometer to obtain the desired inoculum size. […] Spore suspensions were added to the wells to afford a final concentration of 5×10^5 CFU/mL. The plates were incubated at 35° C. for 48 h. The MIC values of compounds 7a-24c and CAS against filamentous fungi were based on the complete inhibition of growth when compared to the growth control (MIC-0). […] Each test was performed in triplicate.

For assay [10], the system named is Aspergillus nidulans ATCC 38163 (strain L). The description is as above. The class given is cell-based. Conditions: Aspergillus nidulans, ATCC38163, 48 h, MIC-0, 48 h at 35° C., read-out: MIC. As to the method:
as §1, §2, §4

For assay [11], the system named is Aspergillus flavus ATCC MYA-3631 (strain K). The description is as above. The class given is cell-based. Particulars: Aspergillus flavus, 48 h, MIC-0, 48 h at 35° C., read-out: MIC. The procedure: as §1, §2, §4
For assay [12], the system named is C. albicans ATCC MYA-2876(S) (strain C). Kind of assay: MIC determination, in vitro antifungal assay (CLSI M27-A3). The class given is cell-based, Candida albicans. Conditions: MIC-0, 48 h at 35° C. As to the method: as §1, §2, §3
Assay [13] deals with C. albicans ATCC MYA-1003(R) (strain G). The assay is described as above. The class given is cell-based, Candida albicans. Conditions: MIC-0, 48 h at 35° C. As to the method:
as §1, §2, §3

Setting [14] is: Pichia kudriavzevii, ATCC6258, 48 h, read-out: MIC.
The mark [15] stands for this setting: Nakaseomyces glabratus, ATCC2001, 48 h, read-out: MIC.
[16] abbreviates: Candida albicans, ATCC10231, 48 h, read-out: MIC.
Where [17] appears, read: Candida albicans, 48 h, read-out: MIC.
[18] abbreviates: Candida albicans, ATCC64124, 48 h, read-out: MIC.

Each structure is given as a SMILES string. Converted amounts (≈) assume the structure as drawn. Like-named read-outs stand apart in the source and are kept apart here.

As to `Fc1ccc(F)c(N/N=C/c2ccc(-c3cccc(/C=N/Nc4cc(F)ccc4F)c3)cc2)c1` [Compound 21a], the MIC in [1] (setting [14]), in [2] (setting [15]), in assay [3], in assay [4] (setting [16]), in assay [5] and in assay [6] (setting [17]) was more than 31.3 mg/L throughout. In addition, the MIC in [7] (setting [18]), in assay [8] (setting [17]), in [9], in [10], in assay [11] and in assay [12] (setting [17]) was more than 31.3 mg/L throughout. Moreover, the minimal inhibitory concentration (MIC) in assay [13] (setting [17]) is more than 31.3 mg/L.

For the molecule `COc1ccc(N/N=C(\C)c2ccc(-c3ccc(/C(C)=N/Nc4ccc(OC)cc4)cc3)cc2)cc1` [Compound 15c], the MIC in assay [1] was 15.6 mg/L (≈ 32.6 µM); in [1] (setting [14]) it was 7.8 to 15.6 mg/L (≈ 16.3 to 32.6 µM); in assay [2], 7.8 mg/L (≈ 16.3 µM); in assay [2] (setting [15]) it was 7.8 to 15.6 mg/L (≈ 16.3 to 32.6 µM); in assay [3], more than 31.3 mg/L; in [4] (setting [16]), 7.8 to 15.6 mg/L (≈ 16.3 to 32.6 µM). Besides, the MIC was 15.6 mg/L (≈ 32.6 µM) in assay [4]; 31.3 mg/L (≈ 65.4 µM) in assay [5]; 7.8 to 15.6 mg/L (≈ 16.3 to 32.6 µM) in [6] (setting [17]); 15.6 mg/L (≈ 32.6 µM) in [6]; 7.8 to 15.6 mg/L (≈ 16.3 to 32.6 µM) in assay [7] (setting [18]); 15.6 mg/L (≈ 32.6 µM) in assay [7]. The MIC in assay [8] (setting [17]) was 7.8 to 15.6 mg/L (≈ 16.3 to 32.6 µM); in assay [8], 7.8 mg/L (≈ 16.3 µM); in assay [9], more than 31.3 mg/L; in assay [10], more than 31.3 mg/L; in [11] it was more than 31.3 mg/L; in assay [12] (setting [17]), 7.8 to 15.6 mg/L (≈ 16.3 to 32.6 µM). Besides, the MIC in assay [12] was 15.6 mg/L (≈ 32.6 µM); in assay [13] (setting [17]), 7.8 to 15.6 mg/L (≈ 16.3 to 32.6 µM); in [13], 7.8 mg/L (≈ 16.3 µM).

On to `Fc1ccccc1N/N=C/c1ccc(-c2ccc(/C=N/Nc3ccccc3F)cc2)cc1` [Compound 10b], for which the minimal inhibitory concentration (MIC) was 3.9 mg/L (≈ 9.14 µM) in assay [1] (setting [14]); more than 31.3 mg/L in [2] (setting [15]); more than 31.3 mg/L in [3]; 3.9 mg/L (≈ 9.14 µM) in assay [4] (setting [16]); 31.3 mg/L (≈ 73.4 µM) in assay [5]; more than 31.3 mg/L in assay [6] (setting [17]). The minimal inhibitory concentration (MIC) is more than 31.3 mg/L in assay [7] (setting [18]); more than 31.3 mg/L in assay [8] (setting [17]); more than 31.3 mg/L in assay [9]; 31.3 mg/L (≈ 73.4 µM) in assay [10]; more than 31.3 mg/L in [11]; 15.6 mg/L (≈ 36.6 µM) in [12] (setting [17]). Further, the minimal inhibitory concentration (MIC) in assay [13] (setting [17]) was 15.6 mg/L (≈ 36.6 µM).

As a reminder, the MIC is the smallest concentration in the dilution series that meets the test's criterion for growth inhibition.
